# From patent publication US11674120B2, “Methods, kits, and compositions for enhancing cellular therapy” (University of Florida Research Foundation, Incorporated, priority 2016, dated 2023)
# Test system: lymph nodes and spleens
# Assay: In vivo migration of PKH+ DCs to lymph nodes and spleen (immunofluorescence)
# Parameters: species or system C57BL/6 mice
# Conditions: intradermal injection, 48 hours
# Protocol: Dendritic cells were cultured and loaded with sarcosine as described in Example 1. DCs were also loaded with PKH cell membrane dye. […] After 48 hours, the lymph nodes and spleens were collected from the mice and immunofluorescence was performed to visualize PKH+ cells (which are the injected DCs) and B220+ cells (which are B cells). […] There was vastly more migration to the lymph nodes/spleen.
structure (smiles),measurement,value
"CNCC(=O)O [sarcosine, N-methylglycine]","Increase of migration to the lymph nodes and the spleen over controls, on visual inspection","more than two times, three times, four times more, five times and perhaps even more than ten-fold more than controls"
